In article PMC8484505 (Cell Reports Medicine, 2021):

Legend:
[1] = Population PK analysis of oral semaglutide in PIONEER 1, 2, 3, 5, 8 and 9; format: in vivo, human
[2] = stated in discussion, no reference given; cited from earlier work
[3] = SUSTAIN-6, T2D population with high CV risk; cited from earlier work

## CC[C@H](C)[C@H](NC(=O)[C@H](Cc1ccccc1)NC(=O)[C@H](CCC(=O)O)NC(=O)[C@H](CCCCNC(=O)COCCOCCNC(=O)COCCOCCNC(=O)CC[C@H](NC(=O)CCCCCCCCCCCCCCCCC(=O)O)C(=O)O)NC(=O)[C@H](C)NC(=O)[C@H](C)NC(=O)[C@H](CCC(N)=O)NC(=O)CNC(=O)[C@H](CCC(=O)O)NC(=O)[C@H](CC(C)C)NC(=O)[C@H](Cc1ccc(O)cc1)NC(=O)[C@H](CO)NC(=O)[C@H](CO)NC(=O)[C@@H](NC(=O)[C@H](CC(=O)O)NC(=O)[C@H](CO)NC(=O)[C@@H](NC(=O)[C@H](Cc1ccccc1)NC(=O)[C@@H](NC(=O)CNC(=O)[C@H](CCC(=O)O)NC(=O)C(C)(C)NC(=O)[C@@H](N)Cc1cnc[nH]1)[C@@H](C)O)[C@@H](C)O)C(C)C)C(=O)N[C@@H](C)C(=O)N[C@@H](Cc1c[nH]c2ccccc12)C(=O)N[C@@H](CC(C)C)C(=O)N[C@H](C(=O)N[C@@H](CCCNC(=N)N)C(=O)NCC(=O)N[C@@H](CCCNC(=N)N)C(=O)NCC(=O)O)C(C)C [oral semaglutide, semaglutide]
[1]; 34 patients with gastric ulcer, non-significant
  lower exposure compared to subjects not reporting GI disease: 11%
[1]; 174 subjects with chronic gastritis
  exposure compared to subjects not reporting GI disease: No effect differences
[1]; oral semaglutide 14 mg
  fraction of subjects with exposure levels considered below the therapeutic range: 3%

## semaglutide
[2]
  half-life: ~1 week

## semaglutide [s.c. semaglutide]
[3]
  reduction in the hazard ratio of major adverse cardiovascular events (MACE): 26%
